Read-outs that look alike come from different tables or passages of the source.
Legend:
Type in all cases: biochemical
[1] = biological target: T1, Btk (Homo sapiens, UniProt Q06187); test: Btk in vitro inhibitory activity (one of Method A TR-FRET, Method B electrophoretic mobility shift, Method C radiometric filter binding)
T1 construct: purified from insect cells as a full-length construct containing a N-terminal 6X-His tag; His6 (N); made in house; host or cells: insect cells (Method C)
Procedure, shortened: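 Method A: TR-FRET with 0.5 nM Btk at [ATP]=Km, EDTA-quenched, 665/615 nm ratio; Ki(app) converted to IC50. Method B: 1 nM full-length His6 human BTK, 1 μM FAM peptide, pH 7.5, mobility-shift product/sum ratio, 12-point 4-parameter fit. Method C: radiometric filter binding, 8 nM His-tagged BTK, 0.2 mg/mL poly-Glu-Tyr.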

[2] = biological target: T2, TEC (Homo sapiens, UniProt P42680); test: Inhibition of a panel of kinases (in vitro HotSpot kinase assay, 33P-ATP, 1 μM ATP); details: for IC50: HotSpot kinase assay, 1 μM ATP; for TEC/Btk: ratio of TEC IC50 to Btk IC50 (selectivity)
T2 sequence (P42680 1-631): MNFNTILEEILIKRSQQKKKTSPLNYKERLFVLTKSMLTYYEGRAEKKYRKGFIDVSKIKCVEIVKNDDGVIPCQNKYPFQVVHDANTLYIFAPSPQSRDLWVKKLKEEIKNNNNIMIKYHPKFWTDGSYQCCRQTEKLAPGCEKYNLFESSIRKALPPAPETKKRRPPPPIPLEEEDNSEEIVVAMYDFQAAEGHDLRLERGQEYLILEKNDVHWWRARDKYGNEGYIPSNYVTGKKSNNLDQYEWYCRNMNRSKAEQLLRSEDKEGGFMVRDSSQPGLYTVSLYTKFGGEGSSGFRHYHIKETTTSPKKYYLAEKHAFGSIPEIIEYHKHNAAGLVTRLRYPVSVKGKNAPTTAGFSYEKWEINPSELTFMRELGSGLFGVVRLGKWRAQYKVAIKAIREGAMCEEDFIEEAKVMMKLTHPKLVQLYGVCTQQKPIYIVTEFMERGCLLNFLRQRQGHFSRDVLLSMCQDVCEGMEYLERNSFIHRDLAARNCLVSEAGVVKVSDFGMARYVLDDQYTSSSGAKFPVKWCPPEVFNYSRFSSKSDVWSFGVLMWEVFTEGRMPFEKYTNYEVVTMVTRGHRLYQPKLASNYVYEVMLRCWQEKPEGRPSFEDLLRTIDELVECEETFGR
Procedure, shortened: (§1)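 Degree of kinase inhibition is determined in vitro using isolated enzymes, a matched substrate and radiolabelled ATP (1 μM).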

[3] = biological target: T3, panel of kinases (Homo sapiens, UniProt P51813); test: Inhibition of a panel of kinases (in vitro HotSpot kinase assay, 33P-ATP, 1 μM ATP), other kinases; details: BMX wild-type, read-out: BMX-WT IC50
T3 sequence (P51813 1-675): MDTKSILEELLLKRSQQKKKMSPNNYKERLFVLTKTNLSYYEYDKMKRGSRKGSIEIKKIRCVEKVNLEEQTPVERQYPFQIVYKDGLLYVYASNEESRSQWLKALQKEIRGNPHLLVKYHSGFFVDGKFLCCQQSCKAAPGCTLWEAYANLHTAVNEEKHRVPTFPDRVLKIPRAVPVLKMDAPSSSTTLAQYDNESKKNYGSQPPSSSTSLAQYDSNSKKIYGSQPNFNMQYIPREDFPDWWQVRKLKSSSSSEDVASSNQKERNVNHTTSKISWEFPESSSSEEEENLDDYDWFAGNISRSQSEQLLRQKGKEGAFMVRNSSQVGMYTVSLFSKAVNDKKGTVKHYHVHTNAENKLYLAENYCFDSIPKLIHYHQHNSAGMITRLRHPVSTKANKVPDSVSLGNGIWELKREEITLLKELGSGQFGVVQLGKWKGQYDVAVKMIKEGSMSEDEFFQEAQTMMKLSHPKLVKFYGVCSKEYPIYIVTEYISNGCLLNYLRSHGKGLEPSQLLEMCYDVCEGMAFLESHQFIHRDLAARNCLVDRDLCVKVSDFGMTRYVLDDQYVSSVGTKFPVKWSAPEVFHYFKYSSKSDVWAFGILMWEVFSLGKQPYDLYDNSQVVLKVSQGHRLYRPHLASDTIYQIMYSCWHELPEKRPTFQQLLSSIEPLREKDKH
Procedure, shortened: as §1

[4] = wild-type Btk, read-out: Btk-WT IC50
[5] = method is one of A, B or C, not stated which, read-out: IC50 values against Btk

T1 sequence (Q06187 whole entry): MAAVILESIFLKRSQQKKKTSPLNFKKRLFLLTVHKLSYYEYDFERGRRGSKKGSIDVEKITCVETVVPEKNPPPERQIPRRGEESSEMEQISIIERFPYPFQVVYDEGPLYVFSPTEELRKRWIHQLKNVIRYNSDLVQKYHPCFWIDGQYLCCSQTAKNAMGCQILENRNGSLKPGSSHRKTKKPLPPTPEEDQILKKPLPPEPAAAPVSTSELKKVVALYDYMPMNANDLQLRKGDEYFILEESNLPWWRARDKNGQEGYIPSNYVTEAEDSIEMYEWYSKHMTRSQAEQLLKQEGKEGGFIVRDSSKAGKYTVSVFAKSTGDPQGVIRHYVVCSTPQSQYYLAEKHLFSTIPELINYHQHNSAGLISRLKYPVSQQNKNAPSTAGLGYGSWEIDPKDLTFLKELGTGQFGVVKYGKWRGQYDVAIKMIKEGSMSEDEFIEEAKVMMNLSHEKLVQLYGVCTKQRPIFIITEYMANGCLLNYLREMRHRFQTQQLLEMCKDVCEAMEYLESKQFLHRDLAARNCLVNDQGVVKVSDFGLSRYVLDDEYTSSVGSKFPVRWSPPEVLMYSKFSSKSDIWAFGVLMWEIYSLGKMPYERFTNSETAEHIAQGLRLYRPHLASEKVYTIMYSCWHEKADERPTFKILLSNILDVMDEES

| IC50 [1, 4] [nM] | IC50 [2] [nM] | TEC/Btk [2] | IC50 [3] [nM] | IC50 [1, 5] [nM] | SMILES |
| --- | --- | --- | --- | --- | --- |
| 0.383 | 298 | 778 | 531 | – | CC(=O)N1C[C@H](Nc2n[nH]c3nccc(-c4ccc(CNC(=O)c5noc(C(C)(C)C)n5)c(F)c4)c23)CC[C@@H]1C [Example 229, N-{[4-(3-{[(3R,6S)-1-acetyl-6-methylpiperidin-3-yl]amino}-1H-pyrazolo[3,4-b]pyridin-4-yl)-2-fluorophenyl]methyl}-5-tert-butyl-1,2,4-oxadiazole-3-carboxamide] |
| 8.35 | 3590 | 430 | 5440 | – | C[C@H]1CC[C@@H](Nc2n[nH]c3nccc(-c4ccc(CNC(=O)c5noc(C(C)(C)C)n5)cc4)c23)CN1C(=O)N(C)C [Example 256, (2S,5R)-5-{[4-(4-{[(5-tert-butyl-1,2,4-oxadiazole-3-carbonyl)amino]methyl}phenyl)-1H-pyrazolo[3,4-b]pyridin-3-yl]amino}-N,N,2-trimethylpiperidine-1-carboxamide] |
| 0.0652 | 20 | 305 | 33 | < 10 | C=CC(=O)N[C@@H]1CCN(c2n[nH]c3nccc(-c4ccc(CNC(=O)c5noc(C(C)(C)C)n5)c(F)c4)c23)C1 [Example 102, 5-tert-butyl-N-[(2-fluoro-4-{3-[(3R)-3-(prop-2-enamido)pyrrolidin-1-yl]-1H-pyrazolo[3,4-b]pyridin-4-yl}phenyl)methyl]-1,2,4-oxadiazole-3-carboxamide] |
| 46.2 | > 10000 | >100 | 5960 | – | CN(C)C(=O)N1CC[C@@H](Nc2n[nH]c3nccc(-c4ccc(C5(NC(=O)c6nc(C(C)(C)C)no6)CC5)cc4)c23)C1 [Example 117, 3-tert-butyl-N-{1-[4-(3-{[(3R)-1-(dimethylcarbamoyl)pyrrolidin-3-yl]amino}-1H-pyrazolo[3,4-b]pyridin-4-yl)phenyl]cyclopropyl}-1,2,4-oxadiazole-5-carboxamide] |
| 22.1 | 807 | – | 98.3 | – | C=CC(=O)N1CC[C@@H](Nc2n[nH]c3nccc(-c4ccc(CNC(=O)N5CCCCC5)c(F)c4)c23)C1 [Example 375, N-{[2-fluoro-4-(3-{[(3R)-1-(prop-2-enoyl)pyrrolidin-3-yl]amino}-1H-pyrazolo[3,4-b]pyridin-4-yl)phenyl]methyl}piperidine-1-carboxamide] |
| 11.6 | 1070 | 092 | 440 | – | C=CC(=O)N1CC[C@@H](Nc2n[nH]c3nccc(-c4cccc(NC(=O)c5ccc(C(C)(C)C)cc5)c4)c23)C1 [Example 263, 4-tert-butyl-N-[3-(3-{[(3R)-1-(prop-2-enoyl)pyrrolidin-3-yl]amino}-1H-pyrazolo[3,4-b]pyridin-4-yl)phenyl]benzamide] |
| > 10000 | 3990 | – | 4050 | – | C=CC(=O)N1CC[C@@H](Nc2n[nH]c3nccc(-c4cccc(-n5ccc6cc(C7CC7)cc(F)c6c5=O)c4COC(C)=O)c23)C1 [Compound 16, [2-(6-cyclopropyl-8-fluoro-1-oxo-1,2-dihydroisoquinolin-2-yl)-6-(3-{[(3R)-1-(prop-2-enoyl)pyrrolidin-3-yl]amino}-1H-pyrazolo[3,4-b]pyridin-4-yl)phenyl]methyl acetate] |
| 3.33 | 3210 | – | 1420 | – | CC(C)(C)c1cc(C(=O)NCc2ccc(-c3ccnc4[nH]nc(N5CC[C@@H](N)C5)c34)cc2F)no1 [Example 307, (R)-N-({4-[3-(3-aminopyrrolidin-1-yl)-1H-pyrazolo[3,4-b]pyridin-4-yl]-2-fluorophenyl}methyl)-5-tert-butyl-1,2-oxazole-3-carboxamide] |
| 49 | 8590 | 175 | 6530 | – | CN(C)C(=O)N1CC[C@@H](Nc2n[nH]c3nccc(-c4ccc(CNC(=O)c5cnn(C(C)(C)C)c5)c(F)c4)c23)C1 [Example 119, 1-tert-butyl-N-{[4-(3-{[(3R)-1-(dimethylcarbamoyl)pyrrolidin-3-yl]amino}-1H-pyrazolo[3,4-b]pyridin-4-yl)-2-fluorophenyl]methyl}-1H-pyrazole-4-carboxamide] |
| 6.27 | 1730 | 276 | 1790 | < 10 | CC(C)(C)c1noc(C(=O)NCc2ccc(-c3ccnc4[nH]nc(N[C@@H]5CCNC5)c34)cc2F)n1 [Example 79, 3-tert-butyl-N-{[2-fluoro-4-(3-{[(3R)-pyrrolidin-3-yl]amino}-1H-pyrazolo[3,4-b]pyridin-4-yl)phenyl]methyl}-1,2,4-oxadiazole-5-carboxamide] |
| 0.202 | 47 | 234 | 21 | < 10 | C=CC(=O)N1C[C@H](Nc2n[nH]c3nccc(-c4ccc(CNC(=O)c5cc(C(C)(C)C)on5)c(F)c4)c23)CC[C@@H]1C [Example 146, 5-tert-butyl-N-{[2-fluoro-4-(3-{[(3R,6S)-6-methyl-1-(prop-2-enoyl)piperidin-3-yl]amino}-1H-pyrazolo[3,4-b]pyridin-4-yl)phenyl]methyl}-1,2-oxazole-3-carboxamide] |
| 35.3 | > 10000 | >100 | > 10000 | – | CC(C)(C)c1ccc(C(=O)Nc2cccc(-c3ccnc4[nH]nc(N[C@@H]5CCNC5)c34)c2CO)cc1 [Example 150, 4-tert-butyl-N-[2-(hydroxymethyl)-3-(3-{[(3R)-pyrrolidin-3-yl]amino}-1H-pyrazolo[3,4-b]pyridin-4-yl)phenyl]benzamide] |
| > 10000 | > 10000 | – | 5280 | – | CCn1cc(C(=O)NCc2ccc(-c3ccnc4[nH]nc(N[C@H]5CC[C@H](O)CC5)c34)cc2F)cn1 [Compound 20, 1-ethyl-N-{[2-fluoro-4-(3-{[(1r,4r)-4-hydroxycyclohexyl]amino}-1H-pyrazolo[3,4-b]pyridin-4-yl)phenyl]methyl}-1H-pyrazole-4-carboxamide] |
| 0.375 | 815 | 2173 | 1220 | – | CC(C)(C)c1noc(C(=O)NCc2ccc(-c3ccnc4[nH]nc(N5CCC(NC(=O)C6CC6)CC5)c34)cc2F)n1 [Example 207, 3-tert-butyl-N-{[4-(3-{4-[(cyclopropanecarbonyl)amino]piperidin-1-yl}-1H-pyrazolo[3,4-b]pyridin-4-yl)-2-fluorophenyl]methyl}-1,2,4-oxadiazole-5-carboxamide] |
| 1.81 | 433 | – | 435 | – | C=CC(=O)N[C@@H]1CCN(c2n[nH]c3nccc(-c4ccc([C@@H](C)NC(=O)c5cc(C(C)(C)O)on5)cc4)c23)C1 [Example 382, 5-(2-hydroxypropan-2-yl)-N-{(1R)-1-[4-(3-{(3R)-3-[(prop-2-enoyl)amino]pyrrolidin-1-yl}-1H-pyrazolo[3,4-b]pyridin-4-yl)phenyl]ethyl}-1,2-oxazole-3-carboxamide] |
| 0.915 | 1190 | – | 3130 | – | CC(=O)OCC(=O)N1C[C@H](Nc2n[nH]c3nccc(-c4ccc(CNC(=O)c5nc(C(C)(C)C)no5)c(F)c4)c23)CC[C@@H]1C [Example 421, 2-[(2S,5R)-5-{[4-(4-{[(3-tert-butyl-1,2,4-oxadiazole-5-carbonyl)amino]methyl}-3-fluorophenyl)-1H-pyrazolo[3,4-b]pyridin-3-yl]amino}-2-methylpiperidin-1-yl]-2-oxoethyl acetate] |

Reference: patent US20180194762A1 (Pharmacyclics LLC, priority 2017, published 2018)
